{"source": "patent US20050107338A1", "about": "“Nutritional supplement enhancing mitochondrial function” (priority 2003, published 2005)", "key": {"COX and SDH": {"system": "COX and SDH", "experiment": "COX and SDH levels in mitochondria of dosed rats", "assay_type": "in vivo", "details": "daily dosing per Table 2, after one month, COX and SDH averaged, vs control group 7", "text": "A group of 154 rats are evenly divided between a control group and six study groups, resulting in 22 animals per group.\nThe change from baseline relative to the last study month in the levels of COX and SDH is compared among the seven study groups using one-way analysis of variance (ANOVA). The Dunnett t-test procedure is used to compare the control group to each of the six treatment groups. As a secondary analysis to evaluate for trends across time, repeated measures of ANOVA are to be used to compare the groups regarding the change in the COX and SDH levels over the three-month time intervals. […]\nThe assay for SDH measures the reduction of 2,6-dichlorophenolindophenol (DCPIP) when coupled to […] reduction of decylubiquinone (DB), monitoring the absorbance at 600 minus […] (extinction coefficient 19.1 mM^−1cm^−1) (Singer T P, 1976). The reduction of DCPIP is measured at 600 minus 520 nm in a 1 ml cuvette at 30° C. […] Antimycin A (2 μg/ml), rotenone (2 μg/ml), KCN (2 mM), and 50 μM DCPIP are added to the sample and the blank rate is recorded for 1 minute. The reaction is initiated by the addition of 50 uM DB and change in absorbance is monitored for 3 minutes.\nThe activity of cytochrome-c oxidase (COX) is measured by following the oxidation of reduced cytochrome c at 550 minus 540 nm (extinction coefficient 19.0 mM^−1 cm^−1) (Errede B, et al. 1996). […]"}, "[1]": {"experiment": "Age-related hearing loss in subjects treated separately with the compounds", "assay_type": "in vivo", "details": "subjects treated separately with each compound"}, "[2]": {"system": "mitochondrial transcripts", "details": "pretreatment of senescent rats; time and dose-dependent; cited from earlier work"}, "complex III": {"target": "T1, complex III (Rattus norvegicus, UniProt P00159)", "T1 construct": "decrease complex III activity in rat brain; host or cells: rat brain (mitochondria)", "details": "by competition with coenzyme Q; cited from earlier work"}}}
{"smiles": "CC(=O)N[C@@H](CS)C(=O)O", "note": "[Study group 2, N-acetyl cysteine, reference compound]", "values": [{"measurement": "increase in COX and SDH relative to the control group", "setting": "COX and SDH", "value": 15, "unit": "%"}]}
{"smiles": "O=C(O)CCCCC1CCSS1", "note": "(stereo not shown) [Study group 1, lipoic acid]", "values": [{"measurement": "increase in COX and SDH relative to the control group", "setting": "COX and SDH", "value": 10, "unit": "%"}, {"measurement": "age-related hearing loss", "setting": "[1]", "value": "improvement"}]}
{"smiles": "CC(=O)O[C@H](CC(=O)[O-])C[N+](C)(C)C", "note": "[acetyl-L-carnitine]", "values": [{"measurement": "age-related hearing loss", "setting": "[1]", "value": "improvement"}, {"measurement": "levels of mitochondrial transcripts", "setting": "[2]", "value": "bring back the levels of mitochondrial transcripts to adult levels"}]}
{"smiles": "Oc1ccc(C=Cc2cc(O)cc(O)c2)cc1", "note": "[Study group 3, resveratrol]", "values": [{"measurement": "age-related hearing loss", "setting": "[1]", "value": "improvement"}, {"measurement": "complex III activity in rat brain", "setting": "complex III", "value": "decrease"}]}
